Measurements published in US11866482B2, “System and method for homogenous GPCR phosphorylation and identification of beta-2 adrenergic receptor positive allosteric modulators” (Duke University, priority 2018, dated 2024).
Values belong to the compound of their own block, whether it stands above or below them.

Legend:
[1] = target: β1AR (Homo sapiens, UniProt P08588); assay: β1AR-mediated cAMP production; type: cell-based; settings: FIG. 21B
[2] = target: T1, β2AR (Homo sapiens, UniProt P07550); assay: ISO-induced G protein-mediated cAMP production, endogenously expressed β2AR; type: cell-based; settings: FIGS. 15A and 15B
[3] = target: β2AR (Homo sapiens, UniProt P07550, N187E); assay: ISO competition binding against 125I-CYP in presence of PAM, β2AR reconstituted in HDL particles; settings: ISO vs 125I-CYP
[4] = target: T1, β2AR; assay: 3H-FEN agonist binding to β2AR in cell membranes; design: host or cells: cell membranes
Procedure: Accordingly, these 50 potential hits from the selection were tested for their ability to increase binding of a radiolabeled agonist, ^3H-fenoterol (^3H-FEN) to the β2AR in membrane preparations, both in the absence and presence of transducers (FIGS. 14E and 14F).
Another feature of allosteric molecules observed in both binding experiments is the “ceiling” effect.

[5] = target: T2, MORpp (Homo sapiens, UniProt P35372); assay: [3H]-Naloxone competition binding, sortase-ligated MORpp HDLs
T2 sequence (P35372 with tags, fused parts or gaps): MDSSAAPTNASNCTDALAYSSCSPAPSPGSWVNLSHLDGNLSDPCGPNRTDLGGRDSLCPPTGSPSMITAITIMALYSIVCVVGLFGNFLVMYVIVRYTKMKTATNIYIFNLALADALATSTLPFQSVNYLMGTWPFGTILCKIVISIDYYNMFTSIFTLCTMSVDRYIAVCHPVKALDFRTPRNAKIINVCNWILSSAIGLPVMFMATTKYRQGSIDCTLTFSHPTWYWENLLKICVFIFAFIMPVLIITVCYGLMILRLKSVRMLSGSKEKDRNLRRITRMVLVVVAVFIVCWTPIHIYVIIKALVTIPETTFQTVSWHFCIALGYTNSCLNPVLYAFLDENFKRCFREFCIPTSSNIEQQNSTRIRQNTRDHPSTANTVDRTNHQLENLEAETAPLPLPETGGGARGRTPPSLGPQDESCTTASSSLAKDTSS
Procedure: (§1) Radioligand Binding: All equilibrium competition radioligand binding studies were conducted in a final volume of 200 μL containing HDL-receptor, radioligand, a titration of unlabeled competitor, and the presence or absence of the indicated transducer protein. All components were diluted in assay buffer containing 20 mM HEPES, pH 7.4, 100 mM NaCl, and 1 mg/mL bovine serum albumin (BSA). […] G protein or βarr1 were used at a final concentration of 100 nM or 1 μM, respectively, unless specified otherwise. Binding reactions proceeded at room temperature and were harvested onto glass-fiber filters (GFB) with 0.3% polyethyleneimine (PEI) using a 96-well Brandel harvester. Binding data were analyzed in GraphPad Prism using a sigmoidal dose-response curve fit, and differences in log IC50 values were analyzed by one-way ANOVA.

[6] = target: T2, MORpp; assay: In vitro G protein GTPase assay, MORpp HDLs (Gi); settings: FIG. 11
Procedure: (§2) G protein GTPase Assay: The GTPase activity of Gαs or Gαi was measured in vitro using the GTPase Glo Assay (Promega) with the following modifications. Final reaction buffer consisted of 20 mM HEPES, pH 7.4, 100 mM NaCl, 10 mM MgCl2, and 1 mg/mL BSA. HDL-β2AR (4 nM), −M2R (100 nM), or MOR (100 nM) was incubated in the absence or presence of the indicated agonist (5 μM) and βarr1 (1 μM) for 15 min at room temperature.
(§3) To test this, an in vitro GTPase activity assay was performed that can quantitatively measure agonist-induced receptor activation of G protein.

[7] = target: T3, M2Rpp (Homo sapiens, UniProt P08172); assay: [3H]-NMS competition binding, sortase-ligated M2Rpp HDLs
T3 sequence (P08172 1-466): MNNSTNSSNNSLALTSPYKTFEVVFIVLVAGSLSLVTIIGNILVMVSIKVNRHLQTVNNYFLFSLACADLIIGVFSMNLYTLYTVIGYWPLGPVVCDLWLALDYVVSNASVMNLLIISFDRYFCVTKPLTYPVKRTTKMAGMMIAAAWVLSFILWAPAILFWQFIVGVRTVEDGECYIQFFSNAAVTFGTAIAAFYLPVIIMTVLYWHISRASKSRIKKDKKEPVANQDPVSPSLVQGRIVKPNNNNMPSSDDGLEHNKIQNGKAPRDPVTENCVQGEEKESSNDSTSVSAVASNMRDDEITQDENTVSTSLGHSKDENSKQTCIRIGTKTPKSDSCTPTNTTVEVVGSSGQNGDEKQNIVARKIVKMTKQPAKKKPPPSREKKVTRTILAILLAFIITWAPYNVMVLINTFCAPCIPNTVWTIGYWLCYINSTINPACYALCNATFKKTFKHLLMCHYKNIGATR
Procedure: as §1

[8] = target: T3, M2Rpp; assay: In vitro G protein GTPase assay, M2Rpp HDLs (Gi); settings: FIG. 11
Procedure: as §2, §3

Sequence of β1AR (P08588 whole entry): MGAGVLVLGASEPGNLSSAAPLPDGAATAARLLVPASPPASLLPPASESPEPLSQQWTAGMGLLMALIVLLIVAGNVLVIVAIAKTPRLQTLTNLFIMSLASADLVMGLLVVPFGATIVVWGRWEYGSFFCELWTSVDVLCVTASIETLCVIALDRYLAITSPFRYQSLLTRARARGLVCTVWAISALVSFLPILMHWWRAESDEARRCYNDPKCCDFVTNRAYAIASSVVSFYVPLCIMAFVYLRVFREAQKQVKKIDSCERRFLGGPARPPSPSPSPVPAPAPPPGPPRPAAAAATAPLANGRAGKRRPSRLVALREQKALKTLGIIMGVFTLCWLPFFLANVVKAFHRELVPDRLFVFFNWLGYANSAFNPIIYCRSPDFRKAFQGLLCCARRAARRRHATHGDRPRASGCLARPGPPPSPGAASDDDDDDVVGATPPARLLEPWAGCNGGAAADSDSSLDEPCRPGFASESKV

changes in ISO dose response pattern of cAMP production [1]: Marginal changes
Compound: COc1ccc(Sc2ccc(S(=O)(=O)N(C)C(C)C)cc2C(=O)N[C@@H](CC(N)=O)Cc2ccc(C(C)(C)C)cc2)cc1 [Cmpd-6, (R)—N-(4-Amino-1-(4-(tert-butyl)phenyl)-4-oxobutan-2-yl)-5-(N-isopropyl-N-methylsulfamoyl)-2-((4-methoxyphenyl)thio)benzamide]

potentiation of the IC50 value of ISO [3]: ~30 fold
increase in 3H-FEN binding to the β2AR [4]: dose-dependently increase the binding
Compound: COc1ccc(Sc2ccc(S(=O)(=O)Nc3cccc(F)c3)cc2C(=O)N[C@@H](CC(N)=O)Cc2ccc(C(C)(C)C)cc2)cc1 [Cmpd-43, (R)—N-(4-Amino-1-(4-(tert-butyl)phenyl)-4-oxobutan-2-yl)-5-(N-(3-fluorophenyl)sulfamoyl)-2-((4-methoxyphenyl)thio)benzamide]
effect on ISO-induced cAMP production [2]: increased the maximal response induced by ISO as well as potentiated the EC50 value

increase in agonist affinity by βarr1 [7]: 57 fold
increase in agonist affinity induced by G protein ([7]; Gi heterotrimer): > 100 fold
Compound: C[N+](C)(C)CCOC(N)=O [carbachol]

Further lines, the compound ahead of its results:

Compound: C[C@@H](NC(=O)[C@@H](N)Cc1ccc(O)cc1)C(=O)NCC(=O)N(C)[C@@H](Cc1ccccc1)C(=O)NCCO [DAMGO]
increase in agonist affinity by βarr1 [5]: 2 fold
increase in agonist affinity induced by G protein ([5]; Gi heterotrimer): > 100 fold
G protein activation (GTP hydrolysis) [6]: increases G protein activation

Compound: C[N+](C)(C)CC#CCOC1=NOCC1 [iperoxo]
effects of G protein and βarr on agonist affinity ([7]; FIGS. 9E and 9F): comparable effects of G protein and βarr
G protein activation (GTP hydrolysis) [8]: increases G protein activation
